# Source: patent US10669272B2, “Substituted naphthyridinone compounds useful as T cell activators” (BRISTOL-MYERS SQUIBB COMPANY, priority 2018, dated 2020)
# Like-named read-outs stand apart in the source and are kept apart here.
# Experiments:
# naïve human CD8 T cells = experiment: Human CD8 T cells IFN-γ assay; format: cell-based; settings: read-out: HuCD8 INFG Normalized EC50;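 further: Naïve human CD8 T cells stimulated with plate-bound anti-CD3 and soluble anti-CD28, IFN-γ in supernatant quantified by AlphaLISA and converted to pg/mL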
# human DGKα = target: T1, human DGKα (Homo sapiens, UniProt P23743); experiment: DGKα LIPGLO assay (extruded liposome substrate), in vitro DGK inhibition; format: biochemical; settings: liposome (LIPGLO) assay; read-out: DGKa LIPGLO IC50
# T1 construct: TVMV protease cleavage site (C); Hexa-His (C); made in house; host or cells: Sf9 insect cells (baculovirus, Bac-to-Bac)
# human DGKζ = target: T2, human DGKζ (Homo sapiens, UniProt Q13574); experiment: DGKζ LIPGLO assay (extruded liposome substrate), in vitro DGK inhibition; format: biochemical; settings: liposome (LIPGLO) assay; read-out: DGKz LIPGLO IC50
# T2 construct: TVMV protease cleavage site (C); Hexa-His (C); made in house; host or cells: Sf9 insect cells (baculovirus, Bac-to-Bac)
# Human venous whole blood = experiment: Human whole blood IFN-γ assay; format: cell-based;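 further: blood from healthy donors exposed to compound for 1 h before stimulation with anti-CD3 and anti-CD28 at 1 µg/mL each, IFN-γ quantified in supernatant by AlphaLISA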
# [1] = Homo sapiens, T-cell, 20 h, normalized to 3 μM reference compound with anti-CD3 plus anti-CD28 as 100% activation
# [2] = Homo sapiens, 24 h, human whole blood, normalized to 3 μM reference compound with anti-CD3 plus anti-CD28 as 100% activation, read-out: INFg Whole Blood Normalized Agonist EC50
# [3] = normalized to 3 μM reference compound with anti-CD3 plus anti-CD28 as 100% activation
# [4] = human whole blood, normalized to 3 μM reference compound with anti-CD3 plus anti-CD28 as 100% activation, read-out: INFg Whole Blood Normalized Agonist EC50
# [5] = Homo sapiens, human whole blood, normalized to 3 μM reference compound with anti-CD3 plus anti-CD28 as 100% activation, read-out: INFg Whole Blood Normalized Agonist EC50
# T1 sequence (P23743 with tags, fused parts or gaps): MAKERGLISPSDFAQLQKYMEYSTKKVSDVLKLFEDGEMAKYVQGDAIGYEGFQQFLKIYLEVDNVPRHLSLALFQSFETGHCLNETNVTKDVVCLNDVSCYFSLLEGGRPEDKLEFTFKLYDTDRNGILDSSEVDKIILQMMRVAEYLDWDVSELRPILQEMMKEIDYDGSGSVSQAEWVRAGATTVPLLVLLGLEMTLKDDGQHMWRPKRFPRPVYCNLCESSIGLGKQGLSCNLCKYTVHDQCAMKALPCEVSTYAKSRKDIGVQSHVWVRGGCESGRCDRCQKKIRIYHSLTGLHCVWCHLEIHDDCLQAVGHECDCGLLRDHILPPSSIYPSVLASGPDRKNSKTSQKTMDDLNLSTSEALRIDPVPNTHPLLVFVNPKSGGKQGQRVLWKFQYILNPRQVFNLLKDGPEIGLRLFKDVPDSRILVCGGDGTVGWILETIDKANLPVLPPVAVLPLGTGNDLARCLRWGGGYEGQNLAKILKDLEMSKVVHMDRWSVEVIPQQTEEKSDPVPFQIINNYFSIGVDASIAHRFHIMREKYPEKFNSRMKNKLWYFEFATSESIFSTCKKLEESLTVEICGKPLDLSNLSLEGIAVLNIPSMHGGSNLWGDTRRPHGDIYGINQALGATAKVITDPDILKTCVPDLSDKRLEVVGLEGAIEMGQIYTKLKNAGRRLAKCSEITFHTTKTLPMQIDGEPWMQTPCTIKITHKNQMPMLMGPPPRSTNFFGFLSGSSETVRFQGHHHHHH
# T2 sequence (Q13574 with tags, fused parts or gaps isoform Q13574-4): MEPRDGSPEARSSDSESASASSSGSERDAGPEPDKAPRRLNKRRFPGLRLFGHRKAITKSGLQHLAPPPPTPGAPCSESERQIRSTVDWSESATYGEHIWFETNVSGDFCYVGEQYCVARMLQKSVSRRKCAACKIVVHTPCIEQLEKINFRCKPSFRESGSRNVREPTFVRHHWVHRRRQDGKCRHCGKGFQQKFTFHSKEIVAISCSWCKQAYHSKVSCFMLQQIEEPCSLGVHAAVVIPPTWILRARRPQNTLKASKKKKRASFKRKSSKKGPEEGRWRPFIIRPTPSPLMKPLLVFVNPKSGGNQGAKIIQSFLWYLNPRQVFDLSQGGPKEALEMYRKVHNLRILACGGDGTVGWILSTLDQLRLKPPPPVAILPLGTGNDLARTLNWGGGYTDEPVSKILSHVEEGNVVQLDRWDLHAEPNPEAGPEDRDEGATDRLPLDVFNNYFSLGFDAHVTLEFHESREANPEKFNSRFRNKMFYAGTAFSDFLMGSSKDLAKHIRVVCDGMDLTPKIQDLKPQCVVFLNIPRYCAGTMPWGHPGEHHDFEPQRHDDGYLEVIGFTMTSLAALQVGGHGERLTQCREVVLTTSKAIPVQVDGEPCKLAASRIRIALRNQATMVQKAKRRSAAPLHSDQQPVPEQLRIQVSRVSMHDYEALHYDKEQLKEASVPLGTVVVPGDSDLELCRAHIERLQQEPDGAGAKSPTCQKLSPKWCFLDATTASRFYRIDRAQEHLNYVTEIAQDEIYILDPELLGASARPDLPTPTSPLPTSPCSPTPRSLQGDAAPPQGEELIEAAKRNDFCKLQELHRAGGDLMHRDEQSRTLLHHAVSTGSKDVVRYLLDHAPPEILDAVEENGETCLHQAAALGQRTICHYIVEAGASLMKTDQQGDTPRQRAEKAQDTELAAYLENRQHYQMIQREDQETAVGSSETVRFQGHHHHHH
Compound,IC50 (human DGKα) [µM],IC50 (human DGKζ) [µM],EC50 (naïve human CD8 T cells; [1]) [µM],EC50 (Human venous whole blood; [2]) [µM],EC50 (naïve human CD8 T cells; [3]) [µM],EC50 (Human venous whole blood; [4]) [µM],"EC50 (Human venous whole blood; Homo sapiens, 24 h, read-out: INFg Whole Blood Normalized Agonist EC50, human whole blood, normalized to 3 μM reference compound with anti-CD3 plus anti-CD28 as 100% activation) [µM]",EC50 (Human venous whole blood; [5]) [µM],"EC50 (naïve human CD8 T cells; Homo sapiens, T-cell, 20 h, naïve human CD8 T cells, anti-CD3 plus anti-CD28, 3 μM reference compound = 100% activation) [µM]","EC50 (Human venous whole blood; read-out: INFg Whole Blood Normalized Agonist EC50, human whole blood, anti-CD3 plus anti-CD28, 24 hours, 3 μM reference compound = 100% activation) [µM]"
"C[C@@H]1CN(c2cc(=O)n(C)c3ccc(C#N)nc23)[C@@H](C)CN1Cc1cccc(F)c1F [Example 286, 8-[(2S,5R)-4-[(2,3-difluorophenyl)methyl]-2,5-dimethylpiperazin-1-yl]-5-methyl-6-oxo-5,6-dihydro-1,5-naphthyridine-2-carbonitrile]",1.9,3.2,0.37,2.2,–,–,–,–,–,–
"CC(C)Oc1ncccc1C(c1ccc(F)cc1)N1C[C@H](C)N(c2cc(=O)n(C)c3ccc(C#N)nc23)C[C@H]1C (single isomer, unassigned) [Example 208]",11,0.68,–,–,0.25,1,–,–,–,–
"C[C@@H]1CN(c2cc(=O)n(C)c3ccc(C#N)nc23)[C@@H](C)CN1C(c1ccccn1)c1ccc(F)cc1F (single isomer, unassigned) [Example 682]",0.58,1.5,0.039,–,–,0.32,–,–,–,–
"C[C@@H]1CN(c2cc(=O)n(C)c3ccc(C#N)nc23)[C@@H](C)CN1C(c1ccc(Cl)cc1)c1ccc(Cl)cn1 (single isomer, unassigned) [Example 201]",0.45,0.79,–,0.5,0.031,–,–,–,–,–
"C[C@@H]1CN(c2cc(=O)n(C)c3ccc(C#N)nc23)[C@@H](C)CN1C(c1ccccc1)c1ccc(OC(F)(F)F)cc1 (single isomer, unassigned) [Example 222]",0.29,0.71,–,–,0.046,0.68,–,–,–,–
"C[C@@H]1CN(c2c(Cl)c(=O)n(C)c3ccc(C#N)nc23)[C@@H](C)CN1C(c1ccccc1)c1ccc(F)cc1 (single isomer, unassigned) [Example 217]",50,140,7.8,20,–,–,–,–,–,–
"Cc1ccc(C(c2ccc(C#N)cc2)N2C[C@H](C)N(c3cc(=O)n(C)c4ccc(C#N)nc34)C[C@H]2C)nc1 (single isomer, unassigned) [Example 360]",0.57,2.5,0.13,–,–,0.31,–,–,–,–
"Cc1ccc(C(c2ccc(F)cc2)N2C[C@H](C)N(c3cc(=O)n(C)c4ccc(C#N)nc34)C[C@H]2C)cc1 (stereo partly drawn) [Example 295, 8-[(2S,5R)-4-[(4-fluorophenyl)(4-methylphenyl)methyl]-2,5-dimethylpiperazin-1-yl]-5-methyl-6-oxo-5,6-dihydro-1,5-naphthyridine-2-carbonitrile]",1.8,1.3,0.2,0.64,–,–,–,–,–,–
"C[C@@H]1CN(c2cc(=O)n(C)c3ccc(C#N)nc23)[C@@H](C)CN1Cc1c(Cl)cccc1C#N [Example 260, 8-[(2S,5R)-4-[(2-chloro-6-cyanophenyl)methyl]-2,5-dimethylpiperazin-1-yl]-5-methyl-6-oxo-5,6-dihydro-1,5-naphthyridine-2-carbonitrile]",3.8,1.1,0.9,4.4,–,–,–,–,–,–
"Cc1cccc(C(c2ccc(Cl)cc2)N2C[C@H](C)N(c3cc(=O)n(C)c4ccc(C#N)nc34)C[C@H]2C)n1 (single isomer, unassigned) [Example 443]",1.4,0.11,0.094,0.37,–,–,–,–,–,–
"CCOc1ncccc1C(c1ccc(F)cc1)N1C[C@H](C)N(c2cc(=O)n(C)c3ccc(C#N)nc23)C[C@H]1C (single isomer, unassigned) [Example 205]",37,0.67,–,0.99,0.15,–,–,–,–,–
"CCc1ccccc1C(c1ccc(F)cc1)N1C[C@H](C)N(c2cc(=O)n(C)c3ccc(OC)nc23)C[C@H]1C (single isomer, unassigned) [Example 235]",81,4.8,–,20,1.5,–,–,–,–,–
"C[C@@H]1CN(c2cc(=O)n(C)c3ccc(C#N)nc23)[C@@H](C)CN1C(c1ccc(F)cc1)c1ccccc1F (stereo partly drawn) [Example 284, 8-[(2S,5R)-4-[(2-fluorophenyl)(4-fluorophenyl)methyl]-2,5-dimethylpiperazin-1-yl]-5-methyl-6-oxo-5,6-dihydro-1,5-naphthyridine-2-carbonitrile]",–,–,0.036,–,–,–,0.78,–,–,–
"CCC(c1ccc(F)cc1F)N1C[C@H](C)N(c2cc(=O)n(C)c3ccc(C#N)nc23)C[C@H]1C (single isomer, unassigned) [Example 338]",–,–,0.02,–,–,–,–,0.13,–,–
"CCc1cc(F)ccc1C(c1ccc(Cl)cc1)N1C[C@H](C)N(c2cc(=O)n(C)c3ccc(C#N)nc23)C[C@H]1C (single isomer, unassigned) [Example 225]",–,0.57,0.061,–,–,7.6,–,–,–,–
"CCC(c1ccc(F)cc1F)N1C[C@H](C)N(c2cc(=O)n(C)c3ccc(C#N)nc23)C[C@H]1C (mixture of isomers) [Example 337, 8-((2S,5R)-4-(1-(2,4-difluorophenyl)propyl)-2,5-dimethylpiperazin-1-yl)-5-methyl-6-oxo-5,6-dihydro-1,5-naphthyridine-2-carbonitrile]",–,–,0.048,–,–,–,–,0.44,–,–
"C[C@@H]1CN(c2c(C#N)c(=O)n(C)c3ccc(C#N)nc23)CCN1C(c1ccccc1)c1ccc(Cl)cc1 (single isomer, unassigned) [Example 886]",–,–,–,–,–,–,–,–,0.0096,0.6
"Cn1c(=O)cc(N2CCN(C(c3ccc(F)cc3)c3ccc(F)cc3)C(C(=O)NC3CC3)C2)c2nc(C#N)ccc21 (single isomer, unassigned) [Example 48, 1-(bis(4-fluorophenyl)methyl)-4-(6-cyano-1-methyl-2-oxo-1,2-dihydro-1,5-naphthyridin-4-yl)-N-cyclopropylpiperazine-2-carboxamide]",240,20,–,–,3.8,–,–,–,–,–
"COC(=O)C1CN(c2c(F)c(=O)n(C)c3ccc(C#N)nc23)CCN1C(c1ccc(Cl)cc1)c1ccc(Cl)cc1 (single isomer, unassigned) [Example 94, methyl 1-(bis(4-chlorophenyl)methyl)-4-(6-cyano-3-fluoro-1-methyl-2-oxo-1,2-dihydro-1,5-naphthyridin-4-yl)piperazine-2-carboxylate]",27,4.4,–,–,0.4,–,–,–,–,–

# The next lines start with results.
IC50 (human DGKα) [µM],IC50 (human DGKζ) [µM],Compound,EC50 (naïve human CD8 T cells; [1]) [µM],EC50 (Human venous whole blood; [2]) [µM],EC50 (naïve human CD8 T cells; [3]) [µM],EC50 (Human venous whole blood; [4]) [µM],"EC50 (Human venous whole blood; Homo sapiens, 24 h, read-out: INFg Whole Blood Normalized Agonist EC50, human whole blood, normalized to 3 μM reference compound with anti-CD3 plus anti-CD28 as 100% activation) [µM]",EC50 (Human venous whole blood; [5]) [µM],"EC50 (naïve human CD8 T cells; Homo sapiens, T-cell, 20 h, naïve human CD8 T cells, anti-CD3 plus anti-CD28, 3 μM reference compound = 100% activation) [µM]","EC50 (Human venous whole blood; read-out: INFg Whole Blood Normalized Agonist EC50, human whole blood, anti-CD3 plus anti-CD28, 24 hours, 3 μM reference compound = 100% activation) [µM]"
0.77,1.7,"Cc1cccc(F)c1CN1C[C@H](C)N(c2cc(=O)n(C)c3ccc(C#N)nc23)C[C@H]1C [Example 255, 8-[(2S,5R)-4-[(2-fluoro-6-methylphenyl)methyl]-2,5-dimethylpiperazin-1-yl]-5-methyl-6-oxo-5,6-dihydro-1,5-naphthyridine-2-carbonitrile]",0.18,3.2,–,–,–,–,–,–
1.3,3,"C[C@@H]1CN(c2cc(=O)n(C)c3ccc(C#N)nc23)[C@@H](C)CN1C(c1ccc(Cl)cc1)c1cccc(F)n1 (single isomer, unassigned) [Example 196]",–,–,0.047,1.4,–,–,–,–
18,0.67,"CCOC[C@@H]1CN(c2cc(=O)n(C)c3ccc(C#N)nc23)[C@@H](C)CN1C(c1ccc(F)cc1)c1ccc(F)cc1 [Example 1164, 8-((2S,5S)-4-(bis(4-fluorophenyl)methyl)-5-(ethoxymethyl)-2-methylpiperazin-1-yl)-5-methyl-6-oxo-5,6-dihydro-1,5-naphthyridine-2-carbonitrile]",0.017,0.34,–,–,–,–,–,–
240,3.7,"CCc1cc(F)ccc1C(c1ccc(Cl)cc1)N1C[C@H](C)N(c2cc(=O)n(C)c3ccc(OC)nc23)C[C@H]1C (single isomer, unassigned) [Example 231]",–,20,1.1,–,–,–,–,–
0.03,0.038,"Cc1ccc(C(c2cc(C)ccn2)N2C[C@H](C)N(c3cc(=O)n(C)c4ccc(C#N)nc34)C[C@H]2C)cc1 (single isomer, unassigned) [Example 460]",0.027,–,–,0.52,–,–,–,–
1.1,1.1,"C[C@@H]1CN(c2cc(=O)n(C)c3ccc(C#N)nc23)[C@@H](C)CN1C(c1ccc(Cl)cc1)c1cccc(F)n1 (single isomer, unassigned) [Example 195]",–,1.8,0.0099,–,–,–,–,–
0.18,2.1,"C[C@@H]1CN(c2cc(=O)n(C)c3ccc(C#N)nc23)[C@@H](C)CN1C(c1ccc(F)cc1)c1ccncn1 (single isomer, unassigned) [Example 392]",0.066,0.33,–,–,–,–,–,–
0.26,0.24,CC[C@H]1CN(C(c2ccc(F)cc2)c2ccc(Cl)cc2)[C@H](CC)CN1c1cc(=O)n(C)c2ccc(C#N)nc12 (some centres unmarked) [Example 1031],0.0013,0.085,–,–,–,–,–,–
58,0.45,"CCOc1cc(F)ccc1C(c1ccc(F)cc1)N1C[C@H](C)N(c2cc(=O)n(C)c3ccc(C#N)nc23)C[C@H]1C (single isomer, unassigned) [Example 229]",–,8.3,1,–,–,–,–,–
